Experimental data as given in patent publication EP2719280A1, “Use of N-phenylethylpyrazole carboxamide derivatives or salts thereof for resistance management of phytopathogenic fungi” (priority 2012, dated 2014).

Experiments:
[1] = system: Alternaria alternata SDH-mutants; conditions: boscalid-resistant isolates carrying SDH- mutations; in vitro; cited from earlier work
[2] = system: Corynespora cassiicola (CORYCA); assay: In vitro microtiter plate assay, mycelial growth determined photometrically at 620nm; type: cell-based; conditions: 400 spores&mycelia / well; for after 3 days EC50 [ppm]: 3 days after inoculation; for after 5 days EC50 [ppm]: 5 days after inoculation; for after 7 days EC50 [ppm]: 7 days after inoculation
Experimental: (§1) In Vitro-activity against various strains of Corynespora cassiicola and Botrytis cinerea resistant to SDHIs
Pathogen: Corynespora cassiicola (CORYCA) originating from cucurbits in Florida (US) • 1. sensitive strain (S011/12) • 2. resistant strain S1 • 3. resistant strain S2
Spores and mycelia of isolates of Corynespora cassiicola used in the microtiter plate assays were received from four weeks old cultures grown on PDA at 20 °C under black light. Spores and mycelia in steril water were used to inoculate the growth medium with 400 spores/mycelia per well. In the microtiter plate assay potato dextrose broth (PDB) was used as growth medium containing 25 mg/L Enrofloxacin. All isolates were tested with the following concentrations of boscalid and compound (1-1): 0 (control) 0.0064, 0.032, 0.16, 0.8, 4, 20 and 100 ppm. 96-well microplates were prepared in the following way: at first, 10 µl methanol (80 %) containing the amount of active ingredient required per concentration, was added to the cavities. After evaporation of the solvent and one day prior to inoculation, 140 ul growth medium was added to each well and the plate was stirred for at least two hours on a shaker. Then, 60 ul of the spore suspension, prepared as described above, were given into each cavity. The plates were incubated at 300 rpm on a shaker for 7 days at 24°C. Mycelia growth was determined photometrically at 620nm, three, five and seven days after inoculation. EC50 values were calculated according to the extinction values.

[3] = system: Botrytis cinerea (BOTRCI); assay: as above; type: cell-based; conditions: succinate medium; for after 4 days EC50 [ppm]: 4 days after inoculation; for after 6 days EC50 [ppm]: 6 days after inoculation
Experimental: as §1
Pathogen: Botrytis cinerea (BOTRCI) sampled in European vineyards • 1. sensitive strain B047 • 2. resistant strain B 1 • 3. resistant strain B2 • 4. resistant strain B3 • 5. resistant strain B4 • 6. resistant strain B5 • 7. resistant strain B6
Conidia of isolates of Botrytis cinerea included in the microtiter plate assay were received from cultures grown at 20°C under black light for eight days. Conidia in steril water were used to inoculate the growth medium with 20.000 spores/well. Liquid succinate medium + 40 mg/L Enrofloxacin were used as growth medium. All isolates were tested with the following concentrations of boscalid and compound (1-1): 0 (control) 0.00192, 0.0096, 0.048, 0.24, 1.2, 6 and 30 ppm. 96-well microplates were prepared in the following way: at first, 10 µl methanol (80 %) containing the amount of active ingredient required per concentration, was added to the cavities. After evaporation of the solvent and one day prior to inoculation, 100 ul growth medium was added to each well and the plate was stirred for at least two hours on a shaker. Then, 100 ul of the spore suspension, prepared as described above, were given into each cavity. The plates were incubated at 300 rpm on a shaker for 6 days at 20°C. Mycelia growth was determined photometrically at 620nm, four and six days after inoculation. EC50 values were calculated according to the extinction values.

For `O=C(NCCc1ncc(C(F)(F)F)cc1Cl)c1ccccc1C(F)(F)F` [fluopyram], the mycelial growth [1] is given as “strongly inhibited”.

For `CC(C)CC(C)c1sccc1NC(=O)c1cn(C)nc1C(F)(F)F` (stereo not drawn) [penthiopyrad], the mycelial growth [1] is given as “not affected”.

In the case of `O=C(Nc1ccccc1-c1ccc(Cl)cc1)c1cccnc1Cl` [Boscalid], the “after 3 days EC50 [ppm]” value ([2]; isolate S011/12 (sensitive)) is reported as 0,519 ppm, the “after 5 days EC50 [ppm]” value ([2]; isolate S011/12 (sensitive)) is reported as 1,387 ppm and the “after 7 days EC50 [ppm]” value ([2]; isolate S011/12 (sensitive)) is reported as 1,225 ppm. The “after 3 days EC50 [ppm]” value ([2]; resistant strain S1) was over 100 ppm, the “after 5 days EC50 [ppm]” value ([2]; resistant strain S1) was over 100 ppm and the “after 7 days EC50 [ppm]” value ([2]; resistant strain S1) was over 100 ppm. The “after 3 days EC50 [ppm]” value ([2]; resistant strain S2) was over 100 ppm, the “after 5 days EC50 [ppm]” value ([2]; resistant strain S2) was over 100 ppm and the “after 7 days EC50 [ppm]” value ([2]; resistant strain S2) was over 100 ppm. The “after 4 days EC50 [ppm]” value ([3]; resistant strain B1) was over 30 ppm, the “after 6 days EC50 [ppm]” value ([3]; resistant strain B1) was over 30 ppm and the “after 4 days EC50 [ppm]” value ([3]; resistant strain B2) was over 30 ppm. The “after 6 days EC50 [ppm]” value ([3]; resistant strain B2) was over 30 ppm, the “after 4 days EC50 [ppm]” value ([3]; resistant strain B3) was over 30 ppm and the “after 6 days EC50 [ppm]” value ([3]; resistant strain B3) was over 30 ppm. For the same compound, the “after 4 days EC50 [ppm]” value ([3]; resistant strain B4) was over 30 ppm, the “after 6 days EC50 [ppm]” value ([3]; resistant strain B4) was over 30 ppm and the “after 4 days EC50 [ppm]” value ([3]; resistant strain B5) was over 30 ppm. The “after 6 days EC50 [ppm]” value ([3]; resistant strain B5) was over 30 ppm, the “after 4 days EC50 [ppm]” value ([3]; resistant strain B6) was over 30 ppm and the “after 6 days EC50 [ppm]” value ([3]; resistant strain B6) was over 30 ppm. The “after 4 days EC50 [ppm]” value ([3]; sensitive strain B047) was 0,286 ppm and the “after 6 days EC50 [ppm]” value ([3]; sensitive strain B047) was 0,317 ppm.

In the case of `COC(c1ccc(Cl)cc1Cl)C(C)NC(=O)c1cn(C)nc1C(F)F` (stereo not drawn) [Compound (1-1), 3-difluoromethyl-1-methyl-1H-pyrazole-4-carboxylic acid [2-(2,4-dichlorophenyl)-2-methoxy-1-methyl-ethyl]-amide], the “after 3 days EC50 [ppm]” value ([2]; isolate S011/12 (sensitive)) is reported as 0,106 ppm, the “after 5 days EC50 [ppm]” value ([2]; isolate S011/12 (sensitive)) is reported as 0,368 ppm and the “after 7 days EC50 [ppm]” value ([2]; isolate S011/12 (sensitive)) is reported as 0,341 ppm. The “after 3 days EC50 [ppm]” value ([2]; resistant strain S1) was 1,204 ppm, the “after 5 days EC50 [ppm]” value ([2]; resistant strain S1) was 1,971 ppm and the “after 7 days EC50 [ppm]” value ([2]; resistant strain S1) was 1,635 ppm. The “after 3 days EC50 [ppm]” value ([2]; resistant strain S2) was 2,583 ppm, the “after 5 days EC50 [ppm]” value ([2]; resistant strain S2) was 7,653 ppm and the “after 7 days EC50 [ppm]” value ([2]; resistant strain S2) was 10,162 ppm. For the same compound, the “after 4 days EC50 [ppm]” value ([3]; resistant strain B1) was 4,449 ppm, the “after 6 days EC50 [ppm]” value ([3]; resistant strain B1) was 6,467 ppm and the “after 4 days EC50 [ppm]” value ([3]; resistant strain B2) was 2,759 ppm. The “after 6 days EC50 [ppm]” value ([3]; resistant strain B2) was 3,073 ppm, the “after 4 days EC50 [ppm]” value ([3]; resistant strain B3) was 1,762 ppm and the “after 6 days EC50 [ppm]” value ([3]; resistant strain B3) was 1,798 ppm. The “after 4 days EC50 [ppm]” value ([3]; resistant strain B4) was 2,166 ppm, the “after 6 days EC50 [ppm]” value ([3]; resistant strain B4) was 1,905 ppm and the “after 4 days EC50 [ppm]” value ([3]; resistant strain B5) was 14,663 ppm. For the same compound, the “after 6 days EC50 [ppm]” value ([3]; resistant strain B5) was 18,965 ppm, the “after 4 days EC50 [ppm]” value ([3]; resistant strain B6) was 0,875 ppm and the “after 6 days EC50 [ppm]” value ([3]; resistant strain B6) was 1,390 ppm. The “after 4 days EC50 [ppm]” value ([3]; sensitive strain B047) was 0,288 ppm and the “after 6 days EC50 [ppm]” value ([3]; sensitive strain B047) was 0,290 ppm.
